How the values were obtained:
[1] = Supersaturation / spontaneous crystallisation in fermentation solution (heat flow calorimeter, turbidity sensor; MethB); format: physicochemical
Method: Within the temperature range of 44° C. to 52° C. the solubility of riboflavin dihydrate and within the temperature range of 44° C. to 59° C. the spontaneous crystallization of riboflavin were investigated. […] In another experiment riboflavin was dissolved at a concentration of 0.7 g l^−1 and at a temperature of 69° C.
The experiments were conducted in a heat flow calorimeter. The process of […] by heating and crystallisation by cooling was monitored by a turbidity sensor. 36 mg of crystals of riboflavin anhydrate I or 60 mg of the crystalline form of riboflavin monohydrate or 120 mg of crystals of riboflavin dihydrate, respectively, were suspended in the fermentation solution and heated to 80° C. at a rate of 0.1° C. per minute. The temperature was held during 60 min. Then the system was cooled again to 20° C. at a rate of 0.1° C./min.
Therefore, another method (MethB) was applied to determine the supersaturation at 39° C.: 420 mg of crystals of riboflavin tetrahydrate were suspended and fully dissolved by heating to 69° C. The concentration of riboflavin was 0.6 mg ml^−1. After cooling again to 39° C., the temperature was kept constant.

[2] = relative humidity of 95%, samples prepared by method of U.S. Pat. No. 2,603,633
Source text: A process for the preparation of riboflavin tetrahydrate is described in U.S. Pat. No. 2,603,633. The process basically uses a solvent to rapidly precipitate the riboflavin in order to obtain the desired tetrahydrate “type C” (modification).

[3] = Soluble fraction of riboflavin in induced and uninduced cultures; format: physicochemical; settings: fermentation culture induced with seed crystals
Method: 500 mg of crystals of riboflavin monohydrate were sterilized at 140° C. for 50 min in an oven, suspended in 5 ml ethanol for 10-200 min, preferably 20-40 min and prior induction 10 ml sterile H2O were added for better handling of the liquid. The suspension was added to the bioreactor after 6 h by a sterile bottle with needle. Crystals of riboflavin dihydrate were formed and in the culture remained monoseptic. From these experiments, it can be concluded that it is possible to direct the crystal modification to riboflavin dihydrate.
In case of the induced cultures this phenomenon is not observed. The solubility of riboflavin (approximately 0.4 gl^−1) is not exceeded. It is controlled by x-ray diffraction whether the crystalline form of the crystals changes during the sterilization procedure.

[4] = not given; remark: listed apart in the source

Cc1cc2nc3c(=O)[nH]c(=O)nc-3n(C[C@H](O)[C@H](O)[C@H](O)CO)c2cc1C.O.O.O.O [riboflavin tetrahydrate]
time until crystallisation started ([1]; 0.6 mg ml^−1 riboflavin, dissolved at 69° C., cooled to and kept at 39° C.): 3 h | temperature of spontaneous crystallisation ([1]; 0.7 mg ml^−1, dissolved at 69° C., cooling): 46 °C | time to transform into riboflavin dihydrate [2]: about 100 min

Cc1cc2nc3c(=O)[nH]c(=O)nc-3n(C[C@H](O)[C@H](O)[C@H](O)CO)c2cc1C [riboflavin anhydrate III]
range of relative humidity in which the crystalline form was identified (second sample (type C), DVS): 0% < RH % RH

Cc1cc2nc3c(=O)[nH]c(=O)nc-3n(C[C@H](O)[C@H](O)[C@H](O)CO)c2cc1C [riboflavin]
solubility of riboflavin [3]: approximately 0.4 gl^−1 | supersaturation line ([1]; 39° C., MethB, concluded from the experiments): below 0.6 mg ml^−1

Cc1cc2nc3c(=O)[nH]c(=O)nc-3n(C[C@H](O)[C@H](O)[C@H](O)CO)c2cc1C [riboflavin anhydrate I, reference compound]
position of the supersaturation line ([1]; 39° C., estimated): above 0.6 g l^−1 | partial transformation into riboflavin dihydrate ([4]; stirred slurry only containing riboflavin anhydrate I, 4° C., in 56 days): 80%

Cc1cc2nc3c(=O)[nH]c(=O)nc-3n(C[C@H](O)[C@H](O)[C@H](O)CO)c2cc1C [riboflavin dihydrate]
water contained in the dihydrate structure (relative humidity of 20%, decreasing RH): about 1.3 mol water per mol riboflavin | water uptake (relative humidity of about 92%, increasing RH, ambient temperature, sample B/C): 9.57 wt.-% | time for complete transformation into riboflavin anhydrate I ([4]; 80° C.): ≤ 20 s | partial transformation into riboflavin anhydrate I ([4]; stirred slurry of pure riboflavin dihydrate, 23° C., in 11 days, Raman spectroscopy): 80%

Cc1cc2nc3c(=O)[nH]c(=O)nc-3n(C[C@H](O)[C@H](O)[C@H](O)CO)c2cc1C [riboflavin anhydrate II]
range of relative humidity at which the crystalline form appeared (sample modification B/C, DVS with parallel X-ray diffraction, ambient temperature): 0% RH

Reference: patent publication US7670800B2, “Process for the purification of riboflavin” (DSM IP Assets B.V., priority 2003, dated 2010)
